Measurements from patent US4585877A, “Process for preparing 1,8-diethyl-1,3,4,9-tetrahydropyrano(3,4-b)-indole-1-acetic acid, etodolac” (American Home Products Corporation, priority 1985, dated 1986).
Like-named read-outs stand apart in the source and are kept apart here.

Key:
adjuvant edema = test: Preventive Adjuvant Edema test (antiinflammatory activity); assay type: in vivo; settings: po
[1] = tested on: Phenylquinone-induced writhing; test: Effects on Phenylquinone-Induced Writhing in Mice test (analgesic activity); assay type: in vivo; settings: Mus musculus, po, read-out: antinociceptive ED50

| SMILES | ED50 (adjuvant edema) [mg/kg] | ED50 [1] [mg/kg] | ED50 (adjuvant edema; Preventive Adjuvant-Edema, p.o., read-out: ED50) [mg/kg] | ED50 ([1]; Phenylquinone-induced writhing in mice, p.o.) [mg/kg] |
| --- | --- | --- | --- | --- |
| CC(=O)Oc1ccccc1C(=O)O [aspirin] | 184 | 54 |  |  |
| CCc1cccc2c3c([nH]c12)C(CC)(CC(=O)O)OCC3 (stereo not shown) [etodolac, 1,8-Diethyl-1,3,4,9-tetrahydropyrano[3,4-b]indole-1-acetic Acid] |  |  | 4 | 154 |
